Several values for one entry are separate records, joined by “and”; a condition that tells them apart may be missing. Equal entries are not always repeated.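 Cells were grown in 96-well plates and exposed to each compound for 48 hours at five concentrations; endpoints were interpolated linearly between bracketing concentrations, or set to the highest concentration if not reached. Here, GI50 denotes the concentration required for 50% inhibition of growth. TGI denotes the concentration required for complete inhibition of growth.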
Legend:
Assay in all cases: inhibition of tumour cell growth, NCI panel, 48 h
[1] = system: HOP-18 NSCLC
[2] = system: SNB-78 CNS
[3] = system: DMS 273 small cell lung
[4] = system: NCI/ADR-RES ovarian
[5] = system: MDA-MB-435
[6] = system: T-47D breast
[7] = system: LXFL 529 NSCLC
[8] = system: DU-145 prostate
[9] = system: PC-3 prostate
[10] = system: MDA-MB-231 breast

CN=S(=O)(c1ccccc1)c1ccccc1
TGI [1]: > 100 µM
TGI [2]: > 100 µM
TGI [3]: > 100 µM

CCC12CCCC(=O)N1C(CO)C(c1ccccc1)O2 (stereo not given)
TGI [1]: > 100 µM
TGI [2]: > 100 µM
TGI [3]: > 100 µM

CC1C(=O)C(C)C(c2ccccc2)N(N=O)C1c1ccccc1 (stereo not given)
GI50 [1]: > 1000 µM
TGI [1]: > 1000 µM
TGI [4]: 867 µM
GI50 [2]: 220 µM
TGI [2]: > 766 µM
TGI [5]: 346 µM
TGI [6]: 311 µM
TGI [7]: > 1000 µM
TGI [8]: 567 µM
TGI [9]: 754 µM
TGI [10]: 250 µM
TGI [3]: > 1000 µM

CC(=O)Oc1ccc(O)c(O)c1C/C=C(\C)CC/C=C(\C)CC/C=C(\C)CCC=C(C)C
TGI [1]: 0.879 µM
TGI [2]: 1.34 µM
TGI [7]: 1.05 µM
TGI [3]: 0.817 µM

Cc1ccc(NC(=O)/C(=N\Nc2ccc([N+](=O)[O-])cc2[N+](=O)[O-])C2C(=O)NC(=O)NC2=O)cc1
TGI [1]: > 100 µM
TGI [2]: > 100 µM
TGI [7]: > 100 µM

CC(=O)NC1=C(C)C(=O)c2c(nc3n2CCC3O)C1=N (stereo not given)
TGI [1]: 31.8 µM
TGI [2]: 8.56 µM
TGI [3]: 33.2 µM

CCCCCCCCCCCCCCCC(=O)OCC1OC(n2c(O)c(N=NC(N)=S)c3ccc([N+](=O)[O-])cc32)C(OC(C)=O)C1OC(C)=O (stereo not given)
TGI [1]: > 100 µM
TGI [2]: > 100 µM
TGI [7]: > 100 µM
TGI [3]: > 100 µM

CCCCCCCCCc1cc(=O)c2ccc(O)cc2o1
TGI [1]: > 100 µM
TGI [2]: > 100 µM
TGI [7]: > 100 µM
TGI [3]: > 100 µM

CC(C)CC1=[N+]=C(NC#N)N=C(CCC(=O)Nc2ccccc2[N+](=O)[O-])C1
TGI [1]: > 100 µM
TGI [7]: > 100 µM

COc1nc2nccc-2c2occn12
TGI [1]: > 100 µM
TGI [2]: > 100 µM
TGI [7]: > 100 µM
TGI [3]: > 100 µM

COC(=O)C1C2C=CC(C2)N1[C@@H](C)c1ccccc1 (stereo not given in full)
TGI [1]: > 100 µM
TGI [2]: > 100 µM
TGI [7]: > 100 µM
TGI [3]: > 100 µM

CCOC(=O)C(=O)Nc1c(C)cccc1C
TGI [1]: > 100 µM
TGI [2]: > 100 µM
TGI [7]: > 100 µM
TGI [3]: > 100 µM

COc1cc(CNc2ccc(C(C)C)cc2)cc(OC)c1OC
TGI [1]: 74.1 µM
TGI [2]: > 100 µM
TGI [7]: 48.7 µM
GI50 [3]: 13 µM
TGI [3]: 26.3 µM

O=C(CN1CCN(c2ccccc2)CC1)N1CCc2c([nH]c3ccccc23)C1c1cccnc1 (stereo not given)
TGI [1]: > 100 µM
TGI [2]: > 100 µM
TGI [7]: > 100 µM
TGI [3]: > 100 µM

COc1ccc(NC(=O)c2cc(OC)c(OC)c(OC)c2)cc1
TGI [1]: > 100 µM
TGI [2]: > 100 µM
TGI [7]: > 100 µM
TGI [3]: > 100 µM

Cc1cccc(C(C)C)c1NC(=O)C(=O)CC(=O)c1c(C)n([O-])c2ccccc2[n+]1=O
TGI [1]: > 100 µM
TGI [2]: > 100 µM
TGI [7]: > 100 µM
TGI [3]: 99.2 µM

CC(=O)OC1c2ccccc2CCCCCCC12OCCO2 (stereo not given)
TGI [1]: > 100 µM
TGI [2]: > 100 µM

COc1ccc(C2S/C(=C\c3ccc(O)cc3)C(=O)N2NC(=O)Cc2ccccc2)cc1 (stereo not given)
TGI [1]: > 100 µM
TGI [7]: > 100 µM
TGI [3]: > 100 µM

COc1ccc(C(C#N)NNc2nc(C)cc(=O)[nH]2)cc1OC (stereo not given)
TGI [1]: > 100 µM
TGI [2]: > 100 µM
TGI [7]: > 100 µM
TGI [3]: > 100 µM

COc1cc([C@@H]2c3cc4c(cc3[C@@H](NC(=O)c3ccccc3)C3COC(=O)[C@@H]32)OCO4)cc(OC)c1O (stereo not given in full)
TGI [1]: > 100 µM
TGI [2]: > 100 µM
TGI [7]: > 100 µM
TGI [3]: 13.7 µM

O=C1CC[C@@H](S(=O)(=O)c2ccccc2)[C@@H](/C=C/c2ccccc2)O1
TGI [1]: > 100 µM
TGI [7]: > 100 µM

CC/C=C\C/C=C\C/C=C\CCCCCCCC(=O)OCC
TGI [1]: > 100 µM
TGI [7]: > 100 µM

CCOc1ccc(NCc2cc(OC)c(OC)c(OC)c2)cc1
GI50 [1]: 2.46 µM and 10.2 µM
TGI [1]: > 100 µM
GI50 [4]: 0.569 µM
TGI [4]: > 100 µM
TGI [2]: > 100 µM
GI50 [5]: 0.0789 µM and 0.0919 µM
TGI [5]: > 100 µM
GI50 [6]: 1.66 µM and 4.48 µM
TGI [6]: > 100 µM
GI50 [7]: 0.839 µM and 2.67 µM
TGI [7]: > 100 µM
TGI [8]: > 100 µM
TGI [9]: > 100 µM
TGI [10]: > 100 µM
GI50 [3]: 0.296 µM and 0.821 µM
TGI [3]: > 100 µM

CCCCCCCCCCCCCC(=O)CBr
TGI [1]: 29.3 µM
TGI [2]: 30.9 µM
TGI [5]: 32 µM
TGI [6]: 18.7 µM
TGI [7]: 9.13 µM
TGI [8]: 33.7 µM
TGI [9]: 16.3 µM
TGI [10]: 34.2 µM

CSc1nc2c(nc(N)n2C2OCC(O)C(O)C2O)c(=O)n1C (stereo not given)
TGI [1]: > 100 µM
TGI [2]: > 100 µM
TGI [7]: > 100 µM

Cc1cc2c3ccccc3n(C)c2c2c1C(=O)C=CC2=O
TGI [4]: > 100 µM
TGI [2]: 49.1 µM
TGI [5]: 45.2 µM
TGI [6]: 19.4 µM
TGI [7]: 8.98 µM
TGI [8]: 44.5 µM
TGI [9]: 21.5 µM
TGI [10]: 32.7 µM
TGI [3]: 29.1 µM

Reference: PubChem BioAssay (NCI)
